In ChEMBL document CHEMBL6074626, “Recent advances in triazole synthesis via click chemistry and their pharmacological applications: A review” (Bioorg Med Chem Lett, 2024):

How the values were obtained:
[1] = target: Cystic fibrosis transmembrane conductance regulator (Homo sapiens, UniProt P13569, F508DEL); assay: Activation of CFTR F508del mutant (unknown origin)
[2] = Cytotoxicity against CHO-K1 cells assessed as reduction in cell growth incubated for 72 hrs by MTT assay; details: Chinese hamster (Cricetulus griseus)
K562 = assay: Antiproliferative activity against human K562 cells assessed as reduction in cell viability incubated for 72 hrs by MTT assay; details: K562, 72 h
HCT-116 = assay: Antiproliferative activity against human HCT-116 cells assessed as reduction in cell viability incubated for 72 hrs by MTT assay; details: HCT-116, 72 h
[3] = target: T1, UDP-N-acetylglucosamine--peptide N-acetylglucosaminyltransferase 110 kDa subunit (Homo sapiens, UniProt O15294)
T1 sequence (O15294 whole entry): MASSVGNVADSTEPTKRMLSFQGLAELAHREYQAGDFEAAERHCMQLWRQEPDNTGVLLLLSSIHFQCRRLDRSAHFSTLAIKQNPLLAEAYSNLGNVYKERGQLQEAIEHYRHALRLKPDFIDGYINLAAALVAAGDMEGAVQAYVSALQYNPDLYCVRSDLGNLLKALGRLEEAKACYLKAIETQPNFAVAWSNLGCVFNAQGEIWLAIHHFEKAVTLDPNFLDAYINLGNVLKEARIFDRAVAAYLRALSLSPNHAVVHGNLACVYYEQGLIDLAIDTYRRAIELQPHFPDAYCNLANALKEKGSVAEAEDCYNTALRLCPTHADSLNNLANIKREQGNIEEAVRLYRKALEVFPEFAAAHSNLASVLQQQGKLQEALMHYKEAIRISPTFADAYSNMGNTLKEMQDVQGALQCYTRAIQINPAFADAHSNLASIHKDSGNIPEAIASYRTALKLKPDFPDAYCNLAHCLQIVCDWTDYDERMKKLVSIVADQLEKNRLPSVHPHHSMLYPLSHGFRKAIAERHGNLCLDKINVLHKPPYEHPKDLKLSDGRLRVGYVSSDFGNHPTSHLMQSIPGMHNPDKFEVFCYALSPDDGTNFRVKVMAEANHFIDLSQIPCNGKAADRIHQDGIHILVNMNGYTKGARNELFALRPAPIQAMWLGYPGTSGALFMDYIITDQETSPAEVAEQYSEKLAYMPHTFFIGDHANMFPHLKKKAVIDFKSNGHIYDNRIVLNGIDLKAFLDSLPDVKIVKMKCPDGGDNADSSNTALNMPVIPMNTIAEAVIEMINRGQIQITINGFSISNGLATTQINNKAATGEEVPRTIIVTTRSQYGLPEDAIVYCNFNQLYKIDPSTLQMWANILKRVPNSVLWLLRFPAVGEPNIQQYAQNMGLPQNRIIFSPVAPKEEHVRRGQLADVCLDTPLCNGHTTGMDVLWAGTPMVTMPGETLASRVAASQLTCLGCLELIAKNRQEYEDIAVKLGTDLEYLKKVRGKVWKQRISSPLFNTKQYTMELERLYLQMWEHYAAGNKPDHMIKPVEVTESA
Description: Binding affinity to human recombinant OGT (312 to 1031 residue) assessed as inhibition constant by fluorescence based analysis

Chain of Cystic fibrosis transmembrane conductance regulator (P13569 as listed by the source): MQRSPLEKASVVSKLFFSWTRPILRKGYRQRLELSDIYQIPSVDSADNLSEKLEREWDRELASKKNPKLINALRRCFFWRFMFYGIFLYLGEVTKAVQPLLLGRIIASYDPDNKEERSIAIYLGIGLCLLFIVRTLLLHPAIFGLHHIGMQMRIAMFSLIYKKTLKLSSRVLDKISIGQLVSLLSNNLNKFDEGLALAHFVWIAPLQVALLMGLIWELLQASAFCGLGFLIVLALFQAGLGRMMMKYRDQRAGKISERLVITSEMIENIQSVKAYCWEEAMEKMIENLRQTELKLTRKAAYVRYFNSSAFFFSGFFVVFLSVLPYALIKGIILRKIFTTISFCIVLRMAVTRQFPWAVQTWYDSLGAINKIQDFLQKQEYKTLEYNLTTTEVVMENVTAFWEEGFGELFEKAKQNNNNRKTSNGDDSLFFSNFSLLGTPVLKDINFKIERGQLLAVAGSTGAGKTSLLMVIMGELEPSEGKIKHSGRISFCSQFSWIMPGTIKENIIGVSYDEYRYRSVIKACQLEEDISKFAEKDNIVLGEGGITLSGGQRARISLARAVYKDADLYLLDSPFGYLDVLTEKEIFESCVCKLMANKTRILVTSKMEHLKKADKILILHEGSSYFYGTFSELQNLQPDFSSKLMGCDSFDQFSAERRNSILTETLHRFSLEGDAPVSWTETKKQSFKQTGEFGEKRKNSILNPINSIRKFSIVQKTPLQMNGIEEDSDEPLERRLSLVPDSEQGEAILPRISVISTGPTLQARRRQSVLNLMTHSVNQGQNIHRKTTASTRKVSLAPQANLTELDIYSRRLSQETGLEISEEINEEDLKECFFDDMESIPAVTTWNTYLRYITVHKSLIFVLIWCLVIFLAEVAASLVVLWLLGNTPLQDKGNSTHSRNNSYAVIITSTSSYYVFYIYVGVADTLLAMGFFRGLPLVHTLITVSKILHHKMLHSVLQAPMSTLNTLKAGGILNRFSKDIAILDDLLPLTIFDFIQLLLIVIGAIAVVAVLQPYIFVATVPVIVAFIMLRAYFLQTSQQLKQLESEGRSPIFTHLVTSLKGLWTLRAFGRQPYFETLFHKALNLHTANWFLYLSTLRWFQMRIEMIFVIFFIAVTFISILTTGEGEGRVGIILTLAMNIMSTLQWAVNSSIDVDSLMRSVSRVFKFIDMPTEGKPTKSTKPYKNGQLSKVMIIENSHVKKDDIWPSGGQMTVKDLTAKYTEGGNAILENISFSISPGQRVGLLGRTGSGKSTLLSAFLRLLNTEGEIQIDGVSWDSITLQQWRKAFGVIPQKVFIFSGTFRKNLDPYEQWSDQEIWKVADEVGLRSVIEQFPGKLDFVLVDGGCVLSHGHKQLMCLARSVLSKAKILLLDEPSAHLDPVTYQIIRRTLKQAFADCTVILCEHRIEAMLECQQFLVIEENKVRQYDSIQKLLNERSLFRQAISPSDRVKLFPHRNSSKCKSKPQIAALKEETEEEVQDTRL

Compound: Cc1ccc(-n2cc(C3(c4ccc5c(c4)OC(F)(F)O5)CC3)nn2)cc1-c1cccc(C(=O)O)c1
- IC50 [1]: 0.66 µM

Compound: O=C(Cn1cc(CSc2nc3cc(OC(F)F)ccc3[nH]2)nn1)NC1CCCCC1
- IC50 at 72 h [2]: 53.3 µM

Compound: COC(=O)CC[C@@H](C)[C@H]1CC[C@H]2[C@@H]3[C@@H](O)C[C@@H]4C[C@H](n5cc(CCCCC#Cc6nc7c(N)ncnc7n6[C@@H]6O[C@H](CO)[C@@H](C)[C@H]6C)nn5)CC[C@]4(C)[C@H]3CC[C@]12C
- IC50 (K562): 8.5 µM
- IC50 (HCT-116): 23.1 µM

Compound: CC(=O)N[C@H]1C(n2cc(COP(=O)(O)OC[C@H]3O[C@@H](n4ccc(=O)[nH]c4=O)[C@H](O)[C@@H]3O)nn2)O[C@H](CO)[C@@H](O)[C@@H]1O (stereo not given in full)
- Ki [3]: 232 µM
